Measurements as given in patent publication US8952030B2, “Morphinan derivative” (priority 2011, dated 2015).
Read-outs that look alike come from different tables or passages of the source.

Experiments:
Type in all cases: cell-based
opioid μ receptor = molecular target: T1, opioid μ receptor (Homo sapiens, UniProt P35372); assay: Opioid receptor functional test (Lance Ultra cAMP Kit), μ receptor agonist activity; conditions: for EC50: CHO cells expressing μ opioid receptor, 10 μM forskolin, cAMP; for Emax at 10 µM: maximum concentration (10 μM), reaction did not reach the maximum, EC50 N.C., relative to DAMGO
T1 construct: expressed in transfected cells; host or cells: CHO cells
T1 sequence (P35372 whole entry): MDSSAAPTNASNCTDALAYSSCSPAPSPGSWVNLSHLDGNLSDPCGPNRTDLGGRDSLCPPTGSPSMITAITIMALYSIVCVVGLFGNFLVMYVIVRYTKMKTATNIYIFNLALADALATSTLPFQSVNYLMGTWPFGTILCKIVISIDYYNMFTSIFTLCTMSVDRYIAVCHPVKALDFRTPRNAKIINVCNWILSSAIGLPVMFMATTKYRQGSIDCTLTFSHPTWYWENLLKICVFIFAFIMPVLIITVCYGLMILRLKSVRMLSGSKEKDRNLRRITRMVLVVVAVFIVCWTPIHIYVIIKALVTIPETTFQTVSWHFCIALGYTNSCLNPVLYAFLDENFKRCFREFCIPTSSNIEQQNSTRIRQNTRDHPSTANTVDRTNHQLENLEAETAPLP
Description: (§1) Functional activities of the compounds of the present invention for the μ, […], and κ opioid receptors were investigated.
(§2) The test was performed according to a prescribed method by using Lance Ultra cAMP Kit (Perkin-Elmer). The agonist activities were evaluated as follows. The CHO cells expressing each opioid receptor (μ, δ, or κ) and a test compound were reacted in an assay buffer (1×HBSS, […], pH 7.4, […] IBMX (isobutylmethylxanthine), 7.5% BSA) for 30 minutes in the presence of 10 μM forskolin. Then, the cAMP detection reagent included in the kit was added, and after 1 hour, time-resolved fluorescence measurements were performed by using the EnVision plate reader (Perkin-Elmer). A dose-responce curve of the test compound was obtained from fluorescence values measured at 665 nm, and EC50 value and Emax value were calculated. The Emax value was calculated as a ratio of the maximum responce of the test compound with respect to the maximum responce of each control agent (SNC80 for δ, DAMGO for μ, U-69593 for κ) taken as 100%.
(§3) 1): Hydrochloride was used.

opioid δ receptor = molecular target: T2, opioid δ receptor (Homo sapiens, UniProt P41143); assay: Opioid receptor functional test (Lance Ultra cAMP Kit), δ receptor agonist activity; conditions: for Emax: read-out: δ Receptor Emax
T2 construct: expressed in transfected cells; host or cells: CHO cells
T2 sequence (P41143 whole entry): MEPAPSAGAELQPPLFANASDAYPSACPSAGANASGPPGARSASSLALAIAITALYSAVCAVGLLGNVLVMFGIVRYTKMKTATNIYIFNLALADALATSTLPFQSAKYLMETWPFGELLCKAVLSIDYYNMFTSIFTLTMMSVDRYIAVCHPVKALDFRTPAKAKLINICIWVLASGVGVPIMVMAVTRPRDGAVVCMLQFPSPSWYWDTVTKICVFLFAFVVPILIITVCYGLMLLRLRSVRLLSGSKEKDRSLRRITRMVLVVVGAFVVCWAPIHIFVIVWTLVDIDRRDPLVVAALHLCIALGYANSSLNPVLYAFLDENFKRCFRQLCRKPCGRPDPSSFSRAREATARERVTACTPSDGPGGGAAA
Description: as §1, §2, §3

opioid κ receptor = molecular target: T3, opioid κ receptor (Homo sapiens, UniProt P41145); assay: Opioid receptor functional test (Lance Ultra cAMP Kit), κ receptor agonist activity; conditions: for Emax at 10 µM: maximum concentration (10 μM), reaction did not reach the maximum, EC50 N.C., relative to U-69593
T3 construct: expressed in transfected cells; host or cells: CHO cells
T3 sequence (P41145 whole entry): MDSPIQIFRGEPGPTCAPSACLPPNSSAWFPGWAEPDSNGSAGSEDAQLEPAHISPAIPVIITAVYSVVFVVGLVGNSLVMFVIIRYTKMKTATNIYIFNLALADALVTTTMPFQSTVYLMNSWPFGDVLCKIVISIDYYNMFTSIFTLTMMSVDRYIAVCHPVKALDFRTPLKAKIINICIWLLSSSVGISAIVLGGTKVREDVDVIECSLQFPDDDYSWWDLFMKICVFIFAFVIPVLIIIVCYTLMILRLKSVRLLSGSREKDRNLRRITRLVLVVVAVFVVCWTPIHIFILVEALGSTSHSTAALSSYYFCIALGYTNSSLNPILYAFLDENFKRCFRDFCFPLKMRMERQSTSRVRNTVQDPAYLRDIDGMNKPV
Description: as §1, §2, §3

[1] = maximum response relative to DAMGO taken as 100%, hydrochloride was used, read-out: μ Receptor Emax
[2] = CHO cells expressing δ opioid receptor, 10 μM forskolin, cAMP, hydrochloride was used, read-out: δ Receptor EC50 value
[3] = maximum response relative to SNC80 taken as 100%, hydrochloride was used
[4] = hydrochloride was used, read-out: κ Receptor responce rate at the maximum concentration (reference value)
[5] = CHO cells expressing κ opioid receptor, 10 μM forskolin, cAMP, hydrochloride was used, read-out: κ Receptor EC50 value
[6] = maximum response relative to U-69593 taken as 100%, hydrochloride was used, read-out: κ Receptor Emax
[7] = hydrochloride was used, read-out: μ Receptor responce rate at the maximum concentration (reference value)

SMILES | EC50 (opioid μ receptor; hydrochloride was used) [nM] | Emax (opioid μ receptor; [1]) [%] | EC50 (opioid δ receptor; [2]) [nM] | Emax (opioid δ receptor; [3]) [%] | Emax at 10 µM (opioid κ receptor; [4]) [%] | EC50 (opioid κ receptor; [5]) [nM] | Emax (opioid κ receptor; [6]) [%] | Emax at 10 µM (opioid μ receptor; [7]) [%] | EC50 (opioid δ receptor) [nM] | Emax (opioid δ receptor) [%] | EC50 (opioid κ receptor) [nM] | Emax (opioid κ receptor; read-out: κ Receptor Emax) [%] | Emax (opioid μ receptor; read-out: μ Receptor responce rate at the maximum concentration (reference value)) [%] | Emax (opioid κ receptor; read-out: κ Receptor responce rate at the maximum concentration (reference value)) [%]
O=C(c1ccccc1)N1C[C@H]2O[C@@]34CC[C@@H]1[C@@H]2[C@@]31CCN(CCO)[C@@H]4Cc2ccc(O)cc21 [Compound 27, [(1S,3aR,5aS,6R,11bR,11cS)-10-hydroxy-14-(2-hydroxyethyl)-1,2,3a,4,5,6,7,11c-octahydro-3H-6,11b-(iminoethano)-1,5a-epoxynaphtho[1,2-e]indol-3-yl](phenyl)methanone] | > 50 | 34 | < 10 | 95 | 33 | – | – | – | – | – | – | – | – | –
Cc1cc(C)nc(N2C[C@H]3CC45CCC2C3C42CCN(CC3CC3)C5Cc3ccccc32)n1 (stereo partly shown) [Compound 300] | > 100 | 26 | < 50 | 105 | – | > 500 | 39 | – | – | – | – | – | – | –
O=C(/C=C/c1ccccc1)N1C[C@H]2OC34CCC1C2C31CCN(CC2CC2)C4Cc2ccc(O)cc21 (stereo partly drawn) [Compound 57, (2E)-1-[(1S,3aR,5aS,6R,11bR,11cS)-14-(cyclopropylmethyl)-10-hydroxy-1,2,3a,4,5,6,7,11c-octahydro-3H-6,11b-(iminoethano)-1,5a-epoxynaphtho[1,2-e]indol-3-yl]-3-phenylpropenone] | – | – | < 10 | 63 | 25 | – | – | 3 | – | – | – | – | – | –
O=S(=O)(c1ccccc1)N1C[C@H]2O[C@@]34CC[C@@H]1[C@@H]2[C@@]31CCN(CC2CC2)[C@@H]4Cc2ccc(O)cc21 [Compound 58, (1S,3aR,5aS,6R,11bR,11cS)-3-benzenesulfonyl-14-(cyclopropylmethyl)-2,3,3a,4,5,6,7,11c-octahydro-1H-6,11b-(iminoethano)-1,5a-epoxynaphtho[1,2-e]indol-10-ol] | > 1 | 54 | – | – | 19 | – | – | – | < 10 | 66 | – | – | – | –
CN1CC[C@@]23c4cc(O)ccc4C[C@@H]1[C@]21CC[C@@H]2[C@H]3[C@@H](CN2C(=O)c2ccccc2)O1 [Compound 12, [(1S,3aR,5aS,6R,11bR,11cS)-10-hydroxy-14-methyl-1,2,3a,4,5,6,7,11c-octahydro-3H-6,11b-(iminoethano)-1,5a-epoxynaphtho[1,2-e]indol-3-yl](phenyl)methanone] | > 1 | 103 | < 1 | 94 | – | – | – | – | – | – | > 10 | 96 | – | –
O=C(c1ccccc1)N1C[C@H]2O[C@@]34CC[C@@H]1[C@@H]2[C@@]31CCN(CC2CC2)[C@@H]4Cc2cccc(O)c21 [Compound 68, [(1S,3aR,5aS,6R,11bR,11cS)-14-(cyclopropylmethyl)-11-hydroxy-1,2,3a,4,5,6,7,11c-octahydro-3H-6,11b-(iminoethano)-1,5a-epoxynaphtho[1,2-e]indol-3-yl](phenyl)methanone] | > 100 | 56 | < 10 | 90 | – | > 100 | 99 | – | – | – | – | – | – | –
CC(C)COC(=O)N1C[C@H]2CC34CCC1C2C31CCN(CC2CC2)C4Cc2ccc(O)cc21 (stereo partly shown) [Compound 196] | – | – | < 10 | 67 | – | > 1 | 12 | 7.6 | – | – | – | – | – | –
O=C(N1CCCCC1)N1C[C@H]2CC34CCC1C2C31CCN(CC2CC2)C4Cc2ccc(O)cc21 (stereo partly shown) [Compound 167] | – | – | < 1 | 96 | – | > 1 | 22 | 4.6 | – | – | – | – | – | –
Oc1ccc2c(c1)C13C(O)CN(CC4CC4)C(C2)C12CCC1C3[C@@H](CN1Cc1ccccc1)O2 (stereo partly drawn) [Compound 329, (1S,3aR,5aS,6R,11bS,11cS,12R)-3-Benzyl-14-(cyclopropylmethyl)-1,2,3a,4,5,6,7,11c-octahydro-1H-6,11b-(iminoethano)-1,5a-epoxynaphtho[1,2-e]indole-10,12-diol] | – | – | < 1 | 76 | – | > 10 | 14 | 0.9 | – | – | – | – | – | –
COc1cc2c(cc1[N+](=O)[O-])C[C@H]1N(CC3CC3)CC[C@@]23C2C4CC[C@@]13C[C@@H]2CN4c1nc(C)cc(C)n1 (stereo partly drawn) [Compound 311, (1S,5aS,6R,11bR)-14-(cyclopropylmethyl)-3-(4,6-dimethylpyrimidin-2-yl)-10-methoxy-9-nitro-2,3,3a,4,5,6,7,11c-octahydro-1H-6,11b-(iminoethano)-1,5a-methanonaphtho[1,2-e]indole] | > 100 | 18 | < 50 | 82 | – | > 500 | 16 | – | – | – | – | – | – | –
Cc1cc(C)nc(N2C[C@H]3CC45CCC2C3C42CCN(C[C@H](C)O)C5Cc3ccc(O)cc32)n1 (stereo partly shown) [Compound 285] | > 10 | 48 | < 10 | 81 | – | > 100 | 78 | – | – | – | – | – | – | –
O=C(c1ccccc1)N1C[C@H]2O[C@@]34CC[C@@H]1[C@@H]2[C@@]31CCN(CC2CC2)[C@@H]4Cc2ccc(O)cc21 [Compound 10, [(1S,3aR,5aS,6R,11bR,11cS)-14-(cyclopropylmethyl)-10-hydroxy-1,2,3a,4,5,6,7,11c-octahydro-3H-6,11b-(iminoethano)-1,5a-epoxynaphtho[1,2-e]indol-3-yl](phenyl)methanone] | – | – | < 1 | 127 | – | – | – | – | – | – | – | – | 3.9 | 2.9
CCCN1CC[C@@]23c4cc(O)ccc4C[C@@H]1[C@]21CC[C@@H]2[C@H]3[C@@H](CN2C(=O)c2ccccc2)C1 [Compound 83, [(1S,3aR,5aS,6R,11bR,11cS)-10-hydroxy-14-propyl-1,2,3a,4,5,6,7,11c-octahydro-3H-6,11b-(iminoethano)-1,5a-methanonaphtho[1,2-e]indol-3-yl](phenyl)methanone] | – | – | < 1 | 99 | 2.1 | – | – | 7.9 | – | – | – | – | – | –
Oc1ccc2c(c1)C13CCN(CC4CC4)C(C2)C12CCC1C3[C@@H](CN1c1nccs1)C2 (stereo partly shown) [Compound 241] | – | – | < 10 | 81 | – | > 1 | 33 | 11 | – | – | – | – | – | –
COc1ccc2c(c1)[C@]13CCN(CC4CC4)[C@H](C2)[C@]12CCC1C3[C@@H](CN1c1nc(C)cc(C)n1)C2 (stereo partly drawn) [Compound 222, (1S,5aS,6R,11bR)-14-(cyclopropylmethyl)-3-(4,6-dimethylpyrimidin-2-yl)-10-methoxy-2,3,3a,4,5,6,7,11c-octahydro-1H-6,11b-(iminoethano)-1,5a-methanonaphtho[1,2-e]indole] | > 100 | 52 | < 10 | 105 | 43 | – | – | – | – | – | – | – | – | –
Oc1ccc2c(c1)[C@]13CCN(CC4CC4)[C@H](C2)[C@]12CCC1C3[C@@H](CN1c1ccccn1)C2 (stereo partly drawn) [Compound 221, (1S,5aS,6R,11bR)-14-(cyclopropylmethyl)-3-(pyridin-2-yl)-2,3,3a,4,5,6,7,11c-octahydro-1H-6,11b-(iminoethano)-1,5a-methanonaphtho[1,2-e]indol-10-ol] | > 1 | 30 | < 1 | 90 | – | > 1 | 42 | – | – | – | – | – | – | –
Oc1ccc2c(c1)[C@]13CCN(CC4CC4)[C@H](C2)[C@]12CC[C@@H]1[C@H]3[C@@H](CN1c1ccccc1)O2 [Compound 31, (1S,3aR,5aS,6R,11bR,11cS)-14-(cyclopropylmethyl)-3-phenyl-2,3,3a,4,5,6,7,11c-octahydro-1H-6,11b-(iminoethano)-1,5a-epoxynaphtho[1,2-e]indol-10-ol] | – | – | < 10 | 46 | – | > 1 | 23 | 14 | – | – | – | – | – | –
